In patent US9538745B2, “Methods for the cryopreservation of cells” (The General Hospital Corporation, priority 2006, dated 2017):
Where two headings read alike, the source gives them in different places. Blank lines part the entries; values can stand above or below the compound they belong to.

Columns and labels:
R1 murine ES cell line [1] = assay: Attachment efficiency of ES cells post vitrification; format: cell-based; conditions: 0.5 M trehalose, 2 M PROH, or both; QMC plunged into liquid nitrogen; day 1; FIG. 15
From the text: (§1) For the purpose of evaluating the maintenance of embryonic stem cell pluripotency, a green fluorescent protein (GFP)-reporter cell system was used. The R1 murine ES cell line which expresses GFP under control of the Oct4 promoter was kindly provided by Andras Nagy (U. Toronto)(Nagy et al., Proc. Nat. Acad. Sci. USA 90:8424, 1993). The ES cell maintenance media consisted of Knockout DMEM+15% Knockout Serum Replacement (Invitrogen, Carlsbad, Calif.) containing 1000 U/ml LIF (Chemicon, Temecula, Calif.). Feeder layer-free ES cells were continually passaged in 0.1% gelatin-coated 75 cm^2 flasks in 5% CO2 humidified air at 37° C.
(§2) On the day of experiment, the attached cells were lightly trypsinized for 3-5 minutes and collected. The cells were pelleted at 100×g for 5 minutes and resuspended in cold stem cell media supplemented with 1.5 M 1,2-propanediol (Sigma, St Louis, Mo.) and incubated on ice for 10 minutes. […]
Cell attachment and growth was determined by counting the number of cells per field under a 10× objective. […] The attachment efficiency was calculated as the ratio of the total number of cells per field of a cryopreserved sample to that of the control non-frozen sample at day 1. To assess the proliferation of the attached cells, the total number of cells per field was further monitored for 4 days.

[2] = Ren et al., cited from earlier work
R1 murine ES cell line [3] = assay: Pluripotent properties of ES cells post vitrification (Oct-4, SSEA-1, alkaline phosphatase); format: cell-based; conditions: 2 M 1,2-propanediol; ultra-fast cooling in QMC
From the text: as §1
as §2, with “minutes. The cells were then spun down at 100×g for 3-5 minutes and resuspended in 1 ml first vitrification solution for 10 minutes. The cells were then spun down at 100×g for 3-5 minutes and resuspended in the second solution at 10×10^6/ml for another 10 minutes.” for “minutes.”

[4] = Critical cooling rate to achieve vitrification (Vcc) from Boutron's semi-empirical theory and DSC constant K4; format: physicochemical
From the text: The critical cooling rate to achieve vitrification (Vcc) is a function of the concentration of cryoprotectant. It has been extensively studied in the case of 1,2-propanediol and other alcohols with relevance in cryobiology, although mainly in the range of cooling rates achievable by differential scanning calorimetry (DSC) techniques. However, it is possible to obtain estimates of the critical cooling rates at other […]. The presence of sugars in equimolar concentrations has shown to have no effect on Vcc in the case of monosaccharides and little effect in the case of sucrose for the concentration used in these studies (0.3 M)(Kuleshova et al., Cryobiology 38:199-130, 1999). The Vcc can be inferred from Boutron's semi-empirical theory of glass forming tendency (Boutron, Cryobiology 23:88-102, 1986); it is given by:
To is the initial temperature of crystallization and xg is the amount of ice formed at the critical cooling rate. Many studies in the literature consider a solution to be vitrified when xg≦10^−6 (Liu and McGrath, Proc. 2005 IEEE Eng. Med. Biol. 27th Ann. Conference, p. 7501-7504, 2005). K4 is a constant dependent of the solution and can be determined by DSC. Although there is not data for K4 in the available literature for our solution, some estimation can be done. The values of K4 for 40%, 37.5% and 35% (w/w) of aqueous solutions of 1,2 propanediol are 24.1° C./min, 54.1° C./min and 151° C./min (Ren et al., Cryobiology 31:47-56, 1994). These values of K4 give rise to Vcc values of 8.0×10^2° C./min, 1.8×10^3° C./min and 5.0×10^3° C./min, respectively. So, a tentative value of […] for 1.8 M of 1,2-propanediol is ≈10^4° C./min. […] The exponential fitting of the data is justified by the theory (Ren et al., supra).

primary rat hepatocytes = format: cell-based
Method: The cell viability of hepatocytes was determined immediately post-cryopreservation in quartz micro-capillaries (QMC) in the presence of either no CPA; 0.3 M sucrose; 1.5 M 1,2-propanediol (PROH); 1.5 M PROH and 0.3 M sucrose; or 2.0 M PROH and […]. The number of viable cells was determined in both vitrified samples as well as non-vitrified controls (i.e., no freezing). Cell viability was quantified by the exclusion of trypan blue. […] There was only ˜35% survival for cells loaded with 1.5 M PROH prior to cryopreservation. Sucrose (0.3 M) was then added to the cryopreservation solution with 1.5-2 M PROH. […] When 0.3 M sucrose was added to the cryopreservation solution, the immediate viability jumped to ˜75%.

[5] = Vitrification of CPA laden solutions: visible opacity after plunging into liquid nitrogen; format: physicochemical
From the text: One convenient way for determining non-vitrification is the appearance of opacity as a result of ice formation when freezing solutions in a straw. If there is no visible opacity, it is called apparent vitrification. Although opacity could be easily identified in the traditional plastic straw using the naked eye, it is very difficult to do so for the quartz micro-capillary due to its small dimension. Therefore, an experimental setup shown in FIG. 10 was designed for visualization of opacity during cooling by directing two focused lights on the capillary held against a dark background for all the devices shown in FIG. 1 except the stainless steel micro-capillary. […] This setup was used to determine the threshold (minimum) CPA concentration required to completely avoid opacity during cooling. […] Various total CPA concentrations from 12% to 30% by volume with 2% increments were studied using both the open pulled straw and the thin walled quartz micro-capillary. Since 0.2-1 M sucrose or trehalose has been used in essentially all studies for cryopreservation of mammalian oocytes by both slow freezing and vitrification, further studies were also performed using the quartz micro-capillary for solutions with 0.5 M sucrose or trehalose plus 1.5 M, 2.0 M, and 2.5 M PROH, respectively. The solutions can be loaded into the open pulled straw and quartz micro-capillaries by capillary action while it can be expelled out of the capillaries by using a micro-syringe attached with a soft PEP polymer needle tip to push from the end of the capillaries with a bigger opening.

[6] = both open pulled straw and quartz micro-capillary, FIG. 14

K4, tentative value ([4]; 1.8 M): ≈ 10^4 ° C./min | Vcc (critical cooling rate to achieve vitrification) ([4]; 35% (w/w) aqueous solution): 5.0×10^3 ° C./min | Vcc (critical cooling rate to achieve vitrification) ([4]; 37.5% (w/w) aqueous solution): 1.8×10^3 ° C./min | Vcc (critical cooling rate to achieve vitrification) ([4]; 40% (w/w) aqueous solution): 8.0×10^2 ° C./min | appearance of solution in quartz micro-capillary after plunging into liquid nitrogen ([5]; 1 M 1,2-propanediol (in FHM)): opaque | appearance of solution in quartz micro-capillary after plunging into liquid nitrogen ([5]; 2 M 1,2-propanediol (in FHM)): clear | appearance of solution in quartz micro-capillary after plunging into liquid nitrogen ([5]; 7% v 1,2-propanediol in FHM media, FIG. 10): whitish appearance | appearance of solution in quartz micro-capillary after plunging into liquid nitrogen ([5]; 14% v 1,2-propanediol in FHM media, FIG. 10): clear appearance | threshold concentration lower than that of ethylene glycol (EG) [5, 6]: ~5 % v | threshold concentration lower than that of the combination of EG and PROH in a 1:1 ratio [5, 6]: 2.5 % v | threshold concentration for the complete absence of opacity ([5]; micro-capillary): ~2 M
Compound: CC(O)CO (centres unmarked) [1,2-propanediol]
attachment efficiency (normalized to control) (R1 murine ES cell line [1]): Only a minimum amount of cells can attach | K4 ([2]; 35% (w/w) aqueous solution): 151 ° C./min | K4 ([2]; 37.5% (w/w) aqueous solution): 54.1 ° C./min | K4 ([2]; 40% (w/w) aqueous solution): 24.1 ° C./min | pluripotent properties post-vitrification (Oct-4, SSEA-1, alkaline phosphatase staining) (R1 murine ES cell line [3]): retained their pluripotent properties | cell survival / immediate viability (exclusion of trypan blue) (primary rat hepatocytes): ~35%

Compound: OCCO [Ethylene glycol (EG), ethylene glycol]
threshold concentration for the complete absence of opacity [5]: ~4 M

Compound: OC[C@H]1O[C@@](CO)(O[C@H]2O[C@H](CO)[C@@H](O)[C@H](O)[C@H]2O)[C@@H](O)[C@@H]1O [sucrose]
cell survival / immediate viability (exclusion of trypan blue) (primary rat hepatocytes): less than 10%

Compound: OC[C@H]1O[C@H](O[C@H]2O[C@H](CO)[C@@H](O)[C@H](O)[C@H]2O)[C@H](O)[C@@H](O)[C@@H]1O [trehalose]
attachment efficiency (normalized to control) (R1 murine ES cell line [1]): Only a minimum amount of cells can attach
